This passage reports EC (1.5-fold), maximal fold induction and melting point results from patent US9914722B2, “Compounds for treating spinal muscular atrophy” (PTC Therapeutics Inc., priority 2012, dated 2018).

In data set [1] the test system is full length SMN2 minigene mRNA containing SMN2 exon 7 (SMN2-A minigene). The data set can be described thus: SMN2 minigene mRNA splicing RT-qPCR assay in cultured cells. It is filed as cell-based, human. As to conditions: Homo sapiens, HEK293-H; HEK293H cells stably transfected with SMN2-A minigene, 24 hours, 7-point concentration curve; concentration giving 1.5-fold SMN2 full length mRNA vs vehicle; read-out: EC1.5x for production of full length SMN2 mRNA. How it is done: SMN2 Minigene mRNA Splicing RT-qPCR Assay in Cultured Cells
The reverse transcription-quantitative PCR-based (RT-qPCR) assay is used to quantify the level of the full length SMN2 minigene mRNA containing SMN2 exon 7 in a HEK293H cell line stably transfected with said minigene and treated with a test compound.
Protocol. HEK293H cells stably transfected with the SMN2-A minigene construct described above (10,000 cells/well) are seeded in 200 μL of cell culture medium (DMEM plus 10% FBS, with 200 μg/mL hygromycin) in 96-well flat-bottom plates and the plate is immediately swirled to ensure proper dispersal of cells, forming an even monolayer of cells. Cells are allowed to attach for at least 4-6 hours. Test compounds are serially diluted 3.16-fold in 100% DMSO to generate a 7-point concentration curve. A solution of test compound (1 μL, 200× in DMSO) is added to each cell-containing well and the plate is incubated for 24 hours in a cell culture incubator (37° C., 5% CO2, 100% relative humidity). Two replicates are prepared for each test compound concentration. The cells are then lysed in Cells-To-Ct lysis buffer and the lysate is stored at −80° C.
Primer SMN Forward A (SEQ ID NO. 1) hybridizes to a nucleotide sequence in exon 7 (nucleotide 22 to nucleotide 40), primer SMN Reverse A (SEQ ID NO. 2) hybridizes to a nucleotide sequence in the coding sequence of Firefly luciferase, SMN Probe A (SEQ ID NO. 3) hybridizes to a nucleotide sequence in exon 7 (nucleotide 50 to nucleotide 54) and exon 8 (nucleotide 1 to nucleotide 21). The combination of these three oligonucleotides detects only SMN1 or SMN2 minigenes (RT-qPCR) and will not detect endogenous SMN1 or SMN2 genes.
The SMN forward and reverse primers are used at final concentrations of 0.4 μM. The SMN probe is used at a final concentration of 0.15 μM. The GAPDH primers are used at final concentrations of 0.2 μM and the probe at 0.15 μM.
The SMN2-minigene GAPDH mix (15 μL total volume) is prepared by combining 7.5 μL of 2×RT-PCR buffer, 0.4 μL of 25×RT-PCR enzyme mix, 0.75 μL of 20×GAPDH primer-probe mix, 4.0075 μL of water, 2 μL of 10-fold diluted cell lysate, 0.06 μL of 100 μM SMN forward primer, 0.06 μL of 100 μM SMN reverse primer, and 0.225 μL of 100 μM SMN probe.
PCR is carried out at the following temperatures for the indicated time: Step 1: 48° C. (15 min); Step 2: 95° C. (10 min); Step 3: 95° C. (15 sec); Step 4: 60° C. (1 min); then repeat Steps 3 and 4 for a total of 40 cycles.
Each reaction mixture contains both SMN2-A minigene and GAPDH primers/probe sets (multiplex design), allowing simultaneous measurement of the levels of two transcripts.
Two SMN spliced products are generated from the SMN2 minigene. The first spliced product containing exon 7, corresponding to SMN2 full length mRNA, is referred to herein using the term “SMN2 minigene FL.” The second spliced product lacking exon 7 is referred to herein using the term “SMN2 minigene Δ7.”
The increase of SMN2 minigene FL mRNA relative to that in cells treated with vehicle control is determined from real-time PCR data using a modified ΔΔCt method (as described in Livak and Schmittgen, Methods, 2001, 25:402-8). The amplification efficiency (E) is calculated from the slope of the amplification curve for SMN2 minigene FL and GAPDH mRNA individually. The abundance of SMN2 minigene FL and GAPDH mRNA are then calculated as (1+E)^−Ct, where Ct is the threshold value for each amplicon. The abundance of SMN2 minigene FL is normalized to GAPDH abundance. The normalized SMN2 minigene FL abundance from test compound-treated samples is then divided by normalized SMN2 minigene FL abundance from vehicle-treated cells to determine the level of SMN2 FL mRNA relative to vehicle control. […]
On the technique in general: Quantitative PCR measures a nucleic acid by following its amplification.

Another data set relates to Smn protein. The data set can be described thus: Smn protein assay (Smn HTRF) in cultured cells. In kind it is cell-based, human. As to conditions: Homo sapiens, Fibroblast, GM03813 SMA Type 1 patient fibroblasts, 48 hours, HTRF; for maximal fold induction: 7-point concentration data, relative to vehicle, read-out: maximum fold (Fold) increase of Smn protein; for EC (1.5-fold): concentration producing 1.5 times Smn protein vs DMSO vehicle, read-out: EC1.5x for Smn protein expression. How it is done:
Smn Protein Assay in Cultured Cells
The Smn HTRF (homogeneous time resolved fluorescence) assay is used to quantify the level of Smn protein in SMA patient fibroblast cells treated with test compounds.
Protocol. Cells are thawed and cultured in DMEM-10% FBS for 72 hours. Cells are trypsinized, counted and re-suspended to a concentration of 25,000 cells/mL in DMEM-10% FBS. The cell suspension is plated at 5,000 cells per well in a 96 well microtiter plate and incubated for 3 to 5 hours. […] Test compounds are serially diluted 3.16-fold in 100% DMSO to generate a 7-point concentration curve. 1 μL of test compound solution is transferred to cell-containing wells and cells are incubated for 48 hours in a cell culture incubator (37° C., 5% CO2, 100% relateive humidity). Triplicate samples are set up for each test compound concentration. After 48 hours, the supernatant is removed from the wells and 25 μL of the RIPA lysis buffer, containing protease inhibitors, is added to the wells and incubated with shaking at room temperature for 1 hour. 25 μL of the diluent is added and then 35 μL of the resulting lysate is transferred to a 384-well plate, where each well contains 5 μL of the antibody solution (1:100 dilution of anti-SMN d2 and anti-SMN kryptate in SMN reconstitution buffer). The plate is centrifuged for 1 minute to bring the solution to the bottom of the wells, then incubated overnight at room temperature. Fluorescence for each well of the plate at 665 nm and 620 nm is measured on an EnVision multilabel plate reader (Perkin-Elmer).
The normalized fluorescence signal is calculated for each sample, Blank and vehicle control well by dividing the signal at 665 nm by the signal at 620 nm. Normalizing the signal accounts for possible fluorescence quenching due to the matrix effect of the lysate. The AF value (a measurement of Smn protein abundance as a percent value) for each sample well is calculated by subtracting the normalized average fluorescence for the Blank control wells from the normalized fluorescence for each sample well, then dividing this difference by the normalized average fluorescence for the Blank control wells and multiplying the resulting value by 100. The ΔF value for each sample well represents the Smn protein abundance from test compound-treated samples. The ΔF value for each sample well is divided by the ΔF value for the vehicle control wells to calculate the fold increase in Smn protein abundance relative to the vehicle control.
For compounds of Formula (I) or a form thereof disclosed herein, Table 9 provides the EC1.5x for Smn protein expression that was obtained from the 7-point concentration data generated for each test compound according to the procedure of Biological Example 7. The term “EC1.5x for Smn protein expression” is defined as that concentration of test compound that is effective in producing 1.5 times the amount of Smn protein in an SMA patient fibroblast cell compared to the amount produced from the DMSO vehicle control. An EC1.5x for Smn protein expression between >3 μM and ≦10 μM is indicated by one star (*), an EC1.5x between >1 μM and ≦3 μM is indicated by two stars (**), an EC1.5x between >0.3 μM and ≦1 μM is indicated by three stars (***) and an EC1.5x≦0.3 μM is indicated by four stars (****).
For compounds of Formula (I) or a form thereof disclosed herein, Table 10 provides the maximum fold (Fold) increase of Smn protein that was obtained from the 7-point concentration data generated for each test compound according to the procedure of Biological Example 7. A maximum fold increase ≦1.2 is indicated by one star (*), a fold increase between >1.2 and ≦1.35 is indicated by two stars (**), a fold increase between >1.35 and ≦1.5 is indicated by three stars (***), a fold increase between >1.5 and ≦1.65 is indicated by four stars (****) and a fold increase >1.65 is indicated by five stars (*****).
In general terms: Time-resolved FRET reads energy transfer from a long-lived donor to a nearby acceptor.

With `C[C@@H]1CN(c2ccc3oc(-c4cccnc4)cc(=O)c3c2)CCN1` [Cpd 11, 6-[(3R)-3-methylpiperazin-1-yl]-2-(pyridin-3-yl)-4H-chromen-4-one], the melting point was in the range of 148 to 150 °C. Moreover, the EC (1.5-fold) in data set [1] lay in the range of 0.3 to 1 µM. Also, in the data set with Smn protein, the maximal fold induction fell in the range of 1.35 to 1.5 and the EC (1.5-fold) was in the range of 3 to 10 µM.

Molecule `CN1CCN(c2ccc3oc(-c4nc5ccccc5s4)cc(=O)c3c2)CC1` [Cpd 35, 2-(1,3-benzothiazol-2-yl)-6-(4-methylpiperazin-1-yl)-4H-chromen-4-one] showed a melting point of 215 to 220 °C. Moreover, the EC (1.5-fold) in data set [1] is 1 to 3 µM. Moreover, the maximal fold induction with Smn protein lay within 1.2 to 1.35.

The molecule `COc1ccc(-c2cc(=O)c3cc(N4CCN[C@H](C)C4)ccc3o2)cc1OC` [Cpd 23, 2-(3,4-dimethoxyphenyl)-6-[(3R)-3-methylpiperazin-1-yl]-4H-chromen-4-one] returned a melting point of 181 to 183 °C. Further, the EC (1.5-fold) in data set [1] is 0.1 to 0.3 µM. In addition, in the data set on Smn protein, the maximal fold induction fell in the range of 1.5 to 1.65 and the EC (1.5-fold) was 0.3 to 1 µM.

Molecule `CN1CCCN(c2ccc3oc(-c4cccnc4)cc(=O)c3c2)CC1` [Cpd 5, 6-(4-methyl-1,4-diazepan-1-yl)-2-(pyridin-3-yl)-4H-chromen-4-one] had a melting point of 136 to 138 °C. For the same molecule, in data set [1], the EC (1.5-fold) was 3 to 30 µM. Moreover, the maximal fold induction in the data set with Smn protein lay within 1.2 to 1.35.

`COc1ccc(-c2cc(=O)c3cc(N4CCNCC4)ccc3o2)cc1OC(F)(F)F` [Cpd 68, 2-[4-methoxy-3-(trifluoromethoxy)phenyl]-6-(piperazin-1-yl)-4H-chromen-4-one]: the melting point was in the range of 104 to 106 °C. In addition, in data set [1], the EC (1.5-fold) was in the range of 0.3 to 1 µM. For the same molecule, in the data set on Smn protein, the maximal fold induction is not above 1.2.

For `C[C@@H]1CN(c2ccc3oc(-c4nc5ccccc5s4)cc(=O)c3c2)C[C@H](C)N1` [Cpd 34, 2-(1,3-benzothiazol-2-yl)-6-[(3R,5S)-3,5-dimethylpiperazin-1-yl]-4H-chromen-4-one], the melting point was in the range of 200 to 202 °C. Further, the EC (1.5-fold) in data set [1] is 0.3 to 1 µM. In addition, the maximal fold induction in the data set with Smn protein was 1.35 to 1.5.

Consider `C[C@@H]1CN(c2ccc3oc(-c4ccccn4)cc(=O)c3c2)C[C@H](C)N1` [Cpd 13, 6-[(3R,5S)-3,5-dimethylpiperazin-1-yl]-2-(pyridin-2-yl)-4H-chromen-4-one], for which the melting point fell in the range of 166 to 168 °C. Further, in data set [1], the EC (1.5-fold) was 1 to 3 µM. The maximal fold induction with Smn protein was 1.35 to 1.5.

The molecule `C[C@@H]1CN(c2ccc3oc(-c4cn5ccccc5n4)cc(=O)c3c2)CCN1` [Cpd 16, 2-(imidazo[1,2-a]pyridin-2-yl)-6-[(3R)-3-methylpiperazin-1-yl]-4H-chromen-4-one] showed a melting point of 210 to 215 °C. The EC (1.5-fold) in data set [1] is 1 to 3 µM. For the same molecule, in the data set on Smn protein, the maximal fold induction is more than 1.65 and the EC (1.5-fold) lay within 1 to 3 µM.

Molecule `COc1ccc(-c2cc(=O)c3cc(N4CCNCC4)ccc3o2)cc1C` [Cpd 51, 2-(4-methoxy-3-methylphenyl)-6-(piperazin-1-yl)-4H-chromen-4-one] displayed a melting point of 98 to 100 °C. For the same molecule, in data set [1], the EC (1.5-fold) is 0.3 to 1 µM. Besides, the maximal fold induction in the data set on Smn protein was in the range of 1.35 to 1.5.

On to `O=c1cc(-c2cn3ccccc3n2)oc2ccc(N3CCNCC3)cc12` [Cpd 8, 2-(imidazo[1,2-a]pyridin-2-yl)-6-(piperazin-1-yl)-4H-chromen-4-one], for which the melting point lay within 207 to 211 °C. Also, the EC (1.5-fold) in data set [1] was in the range of 0.3 to 1 µM. Besides, in the data set with Smn protein, the maximal fold induction lay in the range of 1.5 to 1.65 and the EC (1.5-fold) was 3 to 10 µM.

With `CN1CCN(c2ccc3oc(-c4cccnc4)cc(=O)c3c2)CC1` [Cpd 2, 6-(4-methylpiperazin-1-yl)-2-(pyridin-3-yl)-4H-chromen-4-one], in data set [1], the EC (1.5-fold) was in the range of 3 to 30 µM. The maximal fold induction in the data set on Smn protein lay in the range of 1.2 to 1.35.

In the case of `CCOc1ccc(-c2cc(=O)c3cc(N4C[C@@H](C)N[C@@H](C)C4)ccc3o2)cc1` [Cpd 43, 6-[(3R,5S)-3,5-dimethylpiperazin-1-yl]-2-(4-ethoxyphenyl)-4H-chromen-4-one], the EC (1.5-fold) in data set [1] lay within 1 to 3 µM. Also, in the data set with Smn protein, the maximal fold induction is not above 1.2.

Take `Cc1cn2cc(-c3cc(=O)c4cc(N5CCNCC5)ccc4o3)nc2cn1` [Cpd 72, 2-(6-methylimidazo[1,2-a]pyrazin-2-yl)-6-(piperazin-1-yl)-4H-chromen-4-one]: the EC (1.5-fold) in data set [1] was not above 0.1 µM. In the data set with Smn protein, the maximal fold induction is more than 1.65 and the EC (1.5-fold) is not above 0.3 µM.

The melting point is the temperature of the solid-liquid transition.
